Laboratory results from paper PMC5334605, “Indolediketopiperazine Alkaloids from Eurotium cristatum EN-220, an Endophytic Fungus Isolated from the Marine Alga Sargassum thunbergii” (Marine Drugs, 2017).
In brackets after ≈: the same amount, converted by molar mass.

Key:
[1] = DPPH radical scavenging assay; details: for DPPH radical scavenging activity (IC50): positive control ascorbic acid
[2] = system: Panagrellus redivivus; test: Nematicidal assay; format: in vivo; details: for nematicidal activity (LD50): Panagrellus redivivus, n.a. = no activity; for nematicidal activity against Panagrellus redivivus: result in words
[3] = system: brine shrimp (Artemia salina); format: in vivo; details: for brine shrimp lethality (LD50): Artemia salina, n.a. = no activity; for lethal activity against brine shrimp: result in words
[4] = system: Magnaporthe grisea; test: microbe, parasite or virus in culture; format: cell-based; details: Pyricularia oryzae, read-out: MIC against Magnaporthe grisea
[5] = system: S. aureus; test: Antimicrobial broth microdilution assay; format: cell-based, Staphyloccocus aureus; details: Staphylococcus aureus, read-out: MIC against S. aureus

SMILES: O=C1O[C@H]([C@@H](O)CO)C(O)=C1O [Ascorbic Acid, ascorbic acid, reference compound]
- DPPH radical scavenging activity (IC50) [1]: 2.0 µg/mL

SMILES: C=CC(C)(C)c1[nH]c2cc(CC=C(C)C)ccc2c1/C=C1\NC(=O)C(C)(OC)NC1=O (centres unmarked) [Compound 2, isovariecolorin I]
- DPPH radical scavenging activity (IC50) [1]: 20.6 µg/mL
- nematicidal activity (LD50) [2]: 110.3 µg/mL
- nematicidal activity against Panagrellus redivivus [2]: weak nematicidal effect
- brine shrimp lethality (LD50) [3]: 19.4 µg/mL
- lethal activity against brine shrimp [3]: potent lethal activity

SMILES: C=CC(C)(C)c1[nH]c2c(CC=C(C)CO)cc(CC=C(C)C)cc2c1CC1NC(=O)C(C)NC1=O (centres unmarked) [Compound 3, 30-Hydroxyechinulin]
- brine shrimp lethality (LD50) [3]: 138.1 µg/mL
- lethal activity against brine shrimp [3]: weaklethal activities

SMILES: C=CC(C)(C)c1[nH]c2c(CC=C(C)CO)cc(CC=C(C)C)cc2c1CC1NC(=O)C(C)NC1=O (centres unmarked) [Compound 4, 29-hydroxyechinulin]
- brine shrimp lethality (LD50) [3]: 140.6 µg/mL
- lethal activity against brine shrimp [3]: weaklethal activities

SMILES: C=CC(C)(C)c1[nH]c2c(C[C@H](O)C(C)(C)O)cccc2c1/C=C1\NC(=O)[C@H](C)NC1=O [Compound 6, rubrumazine B]
- DPPH radical scavenging activity (IC50) [1]: 28.5 µg/mL
- MIC [4]: 64 µg/mL (≈ 150 µM)

SMILES: C=CC(C)(C)c1[nH]c2ccccc2c1/C=c1\[nH]c(=O)c(=C)[nH]c1=O [Compound 7, neoechinulin B]
- DPPH radical scavenging activity (IC50) [1]: 10.9 µg/mL
- nematicidal activity (LD50) [2]: >200 µg/mL
- brine shrimp lethality (LD50) [3]: 105.2 µg/mL
- lethal activity against brine shrimp [3]: weaklethal activities

SMILES: C=CC(C)(C)c1[nH]c2cc(CC=C(C)C)ccc2c1C=c1[nH]c(=O)c(=C)[nH]c1=O [Compound 8, neoechinulin C]
- DPPH radical scavenging activity (IC50) [1]: 12.1 µg/mL
- nematicidal activity (LD50) [2]: >200 µg/mL
- brine shrimp lethality (LD50) [3]: 70.1 µg/mL

SMILES: C=CC(C)(C)c1[nH]c2c(CC=C(C)C)cc(CC=C(C)C)cc2c1C[C@@H]1NC(=O)C(=C)NC1=O [Compound 10, didehydroechinulin]
- DPPH radical scavenging activity (IC50) [1]: 13.3 µg/mL
- nematicidal activity (LD50) [2]: 126.4 µg/mL
- nematicidal activity against Panagrellus redivivus [2]: weak nematicidal effect
- brine shrimp lethality (LD50) [3]: 27.1 µg/mL
- lethal activity against brine shrimp [3]: potent lethal activity

SMILES: C=CC(C)(C)c1[nH]c2c(CC=C(C)C)cc(CC=C(C)C)cc2c1C[C@@H]1NC(=O)[C@H](C)NC1=O [Compound 11, echinulin]
- DPPH radical scavenging activity (IC50) [1]: 13.8 µg/mL
- MIC [5]: 256 µg/mL (≈ 555 µM)
- nematicidal activity against Panagrellus redivivus [2]: did not show any activity
- lethal activity against brine shrimp [3]: did not show any activity

SMILES: C=CC(C)(C)c1[nH]c2c(CC=C(C)C)cc(CC=C(C)C)cc2c1C=C1NC(=O)C(C)NC1=O (centres unmarked) [Compound 12, dehydroechinulin]
- DPPH radical scavenging activity (IC50) [1]: 6.4 µg/mL
- radical scavenging activity against DPPH radicals ([1]; result in words): potent radical scavenging activity
- MIC [5]: 256 µg/mL (≈ 557 µM)
- nematicidal activity against Panagrellus redivivus [2]: did not show any activity
- lethal activity against brine shrimp [3]: did not show any activity

SMILES: C=CC(C)(C)c1[nH]c2ccccc2c1/C=C1\NC(=O)C(C)(OC)NC1=O (centres unmarked) [Compound 13, variecolorin H]
- DPPH radical scavenging activity (IC50) [1]: 18.7 µg/mL
- MIC [5]: 256 µg/mL (≈ 724 µM)
